# Experimental data reported in patent US20160166679A1, “METHOD OF TREATMENT USING FOLATE CONJUGATES AND TYROSINE KINASE INHIBITORS” (Purdue Research Foundation, priority 2014, published 2016).
# Columns and labels:
# L1210A tumors = assay: Tyrosine kinase inhibitor/folate-FITC combination therapy in L1210A tumor-bearing mice; type: in vivo, mouse (DBA/2); settings: for tumor volume plot: position of the line at the longest duration (PBS control topmost): FIG. 16; for tumor volume plot: position of the line at the longest duration (PBS control second line from the bottom): FIG. 4
# Experimental: The effect of the combination therapy strategy of Example 1 was evaluated on an alternative tumor type. The […] lymphocytic leukemia cell line was selected due to its high FR expression levels and its ability to grow in immune competent mice. Female DBA/2 mice (purchased from Harlan Laboratories in Indianapolis, Ind.) were used in this model. Mice were injected subcutaneously with 1×10^6 cells suspended in PBS on the left flank. […] Doses of 500 nmols/Kg of folate-FITC in phosphate buffered saline (PBS) by intraperitoneal injection were used in the folate-FITC alone treatment and the combination treatment.
# All treatment groups were terminated when tumors in the PBS control group reached 1500 mm^3 and tumors and spleens were harvested for analysis. The excised tumors were digested using a collagenase cocktail and single cell suspensions were stained for the presence of FR, macrophages, MDSC, and T cells and analyzed by flow cytometry. The intra-tumoral vasculature content in mice treated with PBS, folate-FITC alone, sunitinib alone, or a combination of folate-FITC and sunitinib was imaged, as shown in FIG. 6. […] Portions of each tumor were also cryopreserved for sectioning and immunohistochemistry staining. Harvested spleens were also processed into single cell suspensions and analyzed for immune cell content. The percentage of CD4+ and CD8+ cytotoxic T cell in spleens of L1210A tumor-bearing mice treated with PBS, folate-FITC alone, sunitinib alone, or a combination of folate-FITC and sunitinib was determined, as shown in FIG. 5.
# A second RTK inhibitor, axitinib, was studied in combination with folate-FITC on one of the tumor models. The combination therapy was tested in the L1210A lymphoma model following the experimental methods detailed in Example 2, using an axitinib concentration of 15 mg/Kg administered daily by oral gavage in place of sunitinib. The groups of mice were treated with PBS, folate-FITC alone (500 nmols/Kg of folate-FITC in phosphate buffered saline), axitinib alone, or a combination of folate-FITC and axitinib. Average weights of tumors and spleens of L1210A tumor-bearing mice are shown in FIGS. 17 and 18, respectively.
# M109 tumors = assay: Sunitinib/folate-FITC combination therapy in the M109 lung cancer model; type: in vivo, mouse (Balb/c); settings: M109 tumor-bearing mice; FIG. 11
# Experimental: Solid M109 lung tumors were established on the shoulders of KLH-FITC immunized Balb/c mice (5-6 weeks old from Harlan Laboratories, Indianapolis, Ind.) by injecting them subcutaneously with 1×10^6 of syngeneic M109 cells suspended in media containing 1% female Balb/c serum. The mice were treated according to the same dosing schedule described in Examples 1 and 2. The groups of mice were treated with PBS, folate-FITC alone (500 nmols/Kg of folate-FITC in phosphate buffered saline), sunitinib alone, or a combination of folate-FITC (500 nmols/Kg of folate-FITC in phosphate buffered saline) and sunitinib. Following completion of the study and termination of treatment, the treated animals were sacrificed and tumors and spleens were harvested for analysis as described in Example 2.
# Renca tumors = assay: Sunitinib/folate-FITC combination therapy in Renca tumor-bearing mice; type: in vivo, mouse (Balb/c); settings: FIG. 2
# Experimental: In order to test the effect of combining Sunitinib with folate-targeted immunotherapy on tumor regression in a clinically representative model, the combination therapy was evaluated in Renca tumors, a mouse syngeneic kidney cancer cell line. Renca cells were maintained in a folate deficient cell culture medium and were selected for high folate receptor (FR) expression via multiple steps of cell sorting before being used in therapeutic studies. […] In turn, folate-FITC was used as a folate-hapten conjugate in the therapeutic studies. Female Balb/c mice aged 5-6 weeks were purchased from Harlan Laboratories in Indianapolis, Ind. After allowing one week for the mice to acclimate to their environment, they were vaccinated with 35 ug KLH-FITC in 50 ug GPI-0100 as adjuvant. […]
# Several days before the third immunization, each mouse was injected subcutaneously on the left flank with 1×10^6 Renca cells in serum free medium. […] Treatment was initiated when tumors measured 50 mm^3. […] Tumor sizes were measured using digital calipers on alternating days, and tumor volumes were calculated using the equation ½ (L×W^2).
# Once it was determined that a study needed to be suspended due to tumor size, all animals in the treatment groups were euthanized within 1-2 days and their tumors and spleens harvested for freezing and analysis by flow cytometry. […]
SMILES,tumor volume plot: position of the line at the longest duration (PBS control topmost) (L1210A tumors; axitinib study),"average weights of spleens (L1210A tumors; axitinib study, FIG. 18)",tumor volume plot: position of the line at the longest duration (PBS control topmost) (M109 tumors),tumor volume plot: position of the line at the longest duration (PBS control second line from the bottom) (L1210A tumors; sunitinib study),"average weights of spleens (L1210A tumors; sunitinib study, FIG. 9)",tumor volume plot: position of the line at the longest duration (PBS control topmost) (Renca tumors)
CNC(=O)c1ccccc1Sc1ccc2c(/C=C/c3ccccn3)n[nH]c2c1 [axitinib],second line from the bottom,swelling of the spleens,–,–,–,–
Nc1nc2ncc(CNc3ccc(C(=O)NC(CCC(=O)NCCNC(=S)Nc4ccc(-c5c6ccc(=O)cc-6oc6cc(O)ccc56)c(C(=O)O)c4)C(=O)O)cc3)nc2c(=O)[nH]1 (stereo not drawn) [folate-FITC],second topmost line,swelling of the spleens,second line from the bottom,topmost line,swelling of the spleens,second topmost line
CCN(CC)CCNC(=O)c1c(C)[nH]c(/C=C2\C(=O)Nc3ccc(F)cc32)c1C [sunitinib],–,–,second topmost line,second topmost line,swelling of the spleens,second line from the bottom
